System: HCT 116 human colon tumor
Test: Orthotopic HCT 116 human colon tumors in SCID mice
Format: in vivo
Protocol: The objective of this study was to determine the effect of XG-102 on the growth of HCT 116 human colon tumor orthotopically xenografted in SCID mice.
For XG-102 administration the required amount of XG-102 was dissolved in the vehicle. The formulation was prepared according to the procedure detailed below. Concentrations were calculated and expressed taking into account test item purity and peptide content (multiplier coefficient was 74.6%). […] Diluted solutions were maintained on ice until use. Unused material was discarded. XG-102 was injected once daily at 0.1 and 1 mg/kg/inj. for a total of fourteen consecutive administrations (Q1Dx14). The routes of substance administrations were: injected subcutaneously (SC) at 5 ml/kg/inj., administered per os (PO) to mice by oral gavage via a cannula at 5 ml/kg/adm. The injection and administration volumes were adapted, according to the daily individual body weight of mice.
Twenty four to Forty-eight hours before tumor induction, 5 SCID mice were irradiated with a γ-source (1.8 Gy, Co^60, INRA, Dijon, France). Ten millions (10^7) HCT 116 cells suspended in 200 μl of RPMI medium were subcutaneously injected in the right flank of the 5 female SCJD mice. When tumors reached 1000-2000 mm^3, mice were sacrificed. Tumors were surgically excised from the animal to obtain fresh tumor fragments (20-30 mg) to be orthotopically implanted on the caecum of 75 mice at D0.
Twenty four to forty-eight hours before tumor implantation, 75 SCID mice were irradiated with a γ-source (1.8 Gy, Co^60, INRA, Dijon, France). The surgery was performed in the afternoon, with a minimum delay of two hours after the 7th XG-102 treatment. The abdomen from anaesthetized animal was opened through a median incision under aseptic conditions. The caecum was exteriorized and a small lesion was performed on caecum wall. The tumor fragment was placed on lesion and fixed with 6/0 sutures. The abdominal cavity was subsequently closed in 2 layers with 4/0 sutures.
At D-7, mice were randomized according to their body weight before treatment start to form 5 groups of 15 mice. The body weight of each group was not statistically different from the others (analysis of variance). The treatment began at D-7 according to following treatment schedule: • Mice from group 1 received one PO administration of XG-102 vehicle at 5 ml/kg/inj. once daily for a total of fourteen consecutive administrations (Q 1 Dx14), • Mice from group 2 received one PO administration of XG-102 at 0.1 mg//kg/inj. once daily for a total of fourteen consecutive administrations (QI Dx14), • Mice from group 3 received one PO administration of XG-102 at 1 mg//kg/inj. Once daily for a total of fourteen consecutive administrations (Q1Dx14), • Mice from group 4 received one SC injection of XG-102 at 0.1 mg//kg/inj. once daily for a total of fourteen successive administrations (Q1Dx14), • Mice from group 5 received one SC injection of XG-102 at 1 mg//kg/inj. once daily for a total of fourteen consecutive administrations (Q1Dx14):
Mice were monitored every day throughout the study for behaviour and survival. The body weight and tumor volume was monitored twice a week for all mice throughout the study. Isoflurane® Forene (Centravet, Bondoufle, France) was used to anaesthetize the animals before cell injection, surgery (orthotopic tumor implantation) and sacrifice.
Mice were sacrificed at D26. […] Invasion of liver by tumor nodules was evaluated macroscopically. […]

Compound: CC(C)C[C@@H](NC(=O)[C@@H](Cc1ccccc1)NC(=O)[C@H]1CCCN1C(=O)[C@@H](CCC(N)=O)NC(=O)[C@H](NC(=O)[C@H]1CCCN1C(=O)[C@@H](CCCNC(=N)N)NC(=O)[C@@H](CO)NC(=O)[C@@H](CCC(N)=O)NC(=O)[C@H](N)CC(=O)O)C(C)C)C(=O)N[C@H](CC(N)=O)C(=O)N[C@H](CC(C)C)C(=O)N[C@@H](C(=O)N[C@@H](C(=O)N1CCC[C@@H]1C(=O)N[C@H](CCCNC(=N)N)C(=O)N[C@H](CCCCN)C(=O)N1CCC[C@@H]1C(=O)N[C@H](CCCNC(=N)N)C(=O)N1CCC[C@@H]1C(=O)N1CCC[C@@H]1C(=O)N[C@H](CCCNC(=N)N)C(=O)N[C@H](CCCNC(=N)N)C(=O)N[C@H](CCCNC(=N)N)C(=O)N[C@H](CCC(N)=O)C(=O)N[C@H](CCCNC(=N)N)C(=O)N[C@H](CCCNC(=N)N)C(=O)N[C@H](CCCCN)C(=O)N[C@H](CCCCN)C(=O)N[C@H](CCCNC(=N)N)C(=O)NCC(=O)O)[C@H](C)O)[C@H](C)O [XG-102]
- percentage of death D0 to D9 (surgery complications) (1st treated group listed (PO 0.1 mg/kg, order assumed)): 40%
- percentage of death D0 to D9 (surgery complications) (2nd treated group listed (PO 1 mg/kg, order assumed)): 34%
- percentage of death D0 to D9 (surgery complications) (3rd treated group listed (SC 0.1 mg/kg, order assumed)): 47%
- percentage of death D0 to D9 (surgery complications) (4th treated group listed (SC 1 mg/kg, order assumed)): 40%
- MBWC at D-2 (PO 0.1 mg/kg/adm.): +7.1±4.6%
